Legend:
High humidity test = assay type: physicochemical
Method: (§1) Crystalline form II of the compound of Formula (1) was placed at 25° C. and 92.5% high humidity for 30 days. Samples were taken at 0, 5, 10, and 30 days, respectively, to observe changes in sample characteristics, test for drying loss, measure the total impurity content by HPLC, and measure the XRPD patterns of the samples.

Light exposure test = assay type: physicochemical
Method: as §1, with “placed under conditions of light intensity not less than 1.2×10^6 Lux·hr, with near-ultraviolet energy not less than 200 w·hr/m^2,” for “placed”, “C., RH 25%” for “C. and 92.5% high humidity”

High temperature test = assay type: physicochemical; settings: 60° C.
Method: as §1, with “a high temperature of 60°” for “25°”, “C.” for “C. and 92.5% high humidity”, “characteristics, measure specific rotation with a polarimeter,” for “characteristics,”

Solid stability test = assay type: physicochemical; settings: for Purity - Day 7: 7 days
Method: (§2) The solid samples obtained in the examples were analyzed for crystalline form using a PANalytical EMPYREAN equipped with a PIXceI^1D detector. The instrument parameters are as follows: scanning range: 3° (2θ) to 40° (2θ); step size: 0.013° (2θ); tube voltage and current are 45 KV and 40 mA, respectively.
The HPLC measurements were performed using an Agilent HPLC 1260 series instrument.
Crystalline form II was stored separately at a sealed condition at 60° C. and at 40° C./75% RH for 7 days. The purity of the samples was determined by HPLC before and after storage, and the XRPD patterns were measured.

Mechanical grinding test = assay type: physicochemical; settings: 0.5 g ground in a mortar for about 5 minutes
Method: as §2
0.5 g of crystalline form II was placed in a mortar and ground for about 5 minutes, then the solid was collected for XRPD testing.

[1] = Crystalline form transformation test (heating); assay type: physicochemical; settings: slowly heated to 200° C., then cooled to room temperature
Method: as §2
Crystalline form IV was slowly heated to 200° C. and then cooled to room temperature. Samples before and after heating were collected for XRPD testing.

[2] = Pharmacokinetic test in beagle dogs; assay type: in vivo; settings: dog, blood
Method: (§3) A clear solution of crystalline form II of the compound of Formula (1) was prepared in 10% DMSO, 60% PEG 400, and 30% water for injection and administered intravenously to beagle dogs. An aqueous suspension of crystalline form II of the compound of Formula (1) in 0.5% sodium carboxymethylcellulose (CMC·Na) was prepared and administered orally to beagle dogs to investigate its pharmacokinetic characteristics.

[3] = Pharmacokinetic test in SD rats; assay type: in vivo; settings: rat, blood
Method: as §3, with “SD rats.” for “beagle dogs.”, “SD rats” for “beagle dogs”

## O=C(NC1(C23CC(C(=O)O)(C2)C3)CC1)c1cccc2ccn(Cc3cc4ccccc4o3)c12 [Crystalline form II, 3-(1-(1-(benzofuran-2-ylmethyl)-1H-indole-7-carboxamido)cyclopropyl)bicyclo[1.1.1]pentane-1-carboxylic acid]
High humidity test; 25° C., 92.5% RH, 30 days
  differences in appearance, moisture, content and crystalline form compared to day 0: no significant differences
  water absorption: 0.03%
High humidity test; 25° C., 92.5% RH, 30 days, HPLC
  new impurities formed: ≤ 0.05%
High humidity test; RH 92.5%
  stability under high humidity conditions: stable
Light exposure test; light exposure, 30 days
  crystalline form (XRPD): did not change
Light exposure test; light exposure, 30 days, HPLC
  new impurities formed: ≤ 0.05%
Light exposure test; light not less than 1.2×10^6 Lux·hr, near-UV not less than 200 w·hr/m^2, 25° C., RH 25%, 30 days
  changes in moisture and content compared to day 0: no significant changes
Light exposure test; total illumination not less than 1.2×10^6 Lux·hr, near-UV not less than 200 w·hr/m^2
  stability under light exposure conditions: stable
High temperature test
  stability under high-temperature conditions: stable
High temperature test; 30 days
  differences in appearance, moisture, content and crystalline form compared to day 0: no significant differences
High temperature test; 30 days, HPLC
  new impurities formed: ≤ 0.05%
Solid stability test; HPLC, 40° C./75% RH
  Purity - Day 7: 99.4 Area %
Solid stability test; HPLC, before storage
  Purity at the beginning: 99.4 Area %
Solid stability test; HPLC, sealed condition at 60° C.
  Purity - Day 7: 99.6 Area %
Solid stability test; sealed at 60° C. and at 40° C./75% RH for 7 days
  crystalline form after storage (XRPD): remained unchanged
Mechanical grinding test
  crystalline form after grinding (XRPD): remained unchanged

## O=C(NC1(C23CC(C(=O)O)(C2)C3)CC1)c1cccc2ccn(Cc3cc4ccccc4o3)c12 [Crystalline form IV, 3-(1-(1-(benzofuran-2-ylmethyl)-1H-indole-7-carboxamido)cyclopropyl)bicyclo[1.1.1]pentane-1-carboxylic acid]
[1]
  crystalline form after heating (XRPD): transformed into crystalline form II

## O=C(NC1(C23CC(C(=O)O)(C2)C3)CC1)c1cccc2ccn(Cc3cc4ccccc4o3)c12 [compound of Formula (1), 3-(1-(1-(benzofuran-2-ylmethyl)-1H-indole-7-carboxamido)cyclopropyl)bicyclo[1.1.1]pentane-1-carboxylic acid]
[2]; single intravenous 5 mg/kg, read-out: clearance (CL)
  clearance: 6.64 mL/min/kg
[2]; single intravenous 5 mg/kg, read-out: steady-state apparent volume of distribution (Vss)
  Vd: 1.5 L/kg
[2]; single intravenous 5 mg/kg, solution of crystalline form II in 10% DMSO, 60% PEG 400, 30% water, read-out: drug exposure (AUC0-t)
  AUC(0-t): 12600 ng·h/mL
[2]; single oral 45 mg/kg, suspension of crystalline form II in 0.5% CMC·Na, read-out: exposure (AUC0-t)
  AUC(0-t): 79600 ng·h/mL
[2]; single oral 45 mg/kg, suspension of crystalline form II in 0.5% CMC·Na, read-out: maximum blood drug concentration (Cmax)
  Cmax: 32900 ng/mL
[3]; single intravenous 15 mg/kg, read-out: clearance (CL)
  clearance: 3.59 mL/min/kg
[3]; single intravenous 15 mg/kg, read-out: steady-state apparent volume of distribution (Vss)
  Vd: 1.18 L/kg
[3]; single intravenous 15 mg/kg, solution of crystalline form II in 10% DMSO, 60% PEG 400, 30% water, read-out: drug exposure (AUC0-t)
  AUC(0-t): 78800 ng·h/mL
[3]; single oral 40 mg/kg, suspension of crystalline form II in 0.5% CMC·Na, read-out: exposure (AUC0-t)
  AUC(0-t): 153000 ng·h/mL
[3]; single oral 40 mg/kg, suspension of crystalline form II in 0.5% CMC·Na, read-out: maximum blood drug concentration (Cmax)
  Cmax: 27700 ng/mL
